# US20110086759A1, “CHEMICAL COMPOUNDS” (SYNGENTA CROP PROTECTION, INC., priority 2007, published 2011)
# Key:
# Type in all cases: in vivo
# [1] = test system: Alopecurus myosuroides (ALOMY); assay: Pre-emergence biological efficacy, glasshouse pot test; conditions: 312 h
# Method in brief: (§1)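 Test compound, formulated in acetone/water (50:50) containing 0.5% Tween 20 and diluted into an aqueous spray, was applied at 1000 or 250 g/ha to pots sown one day earlier. Injury was rated after 13 days, 100 meaning total damage.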
# Solanum nigrum (SOLNI) [2] = assay: as above; conditions: 312 h
# Method in brief: as §1
# [3] = test system: Echinochloa crus-galli (ECHCG); assay: as above; conditions: 312 h
# Method in brief: as §1
# [4] = test system: Amaranthus retoflexus (AMARE); assay: as above; conditions: Amaranthus retroflexus, 312 h
# Method in brief: as §1
# [5] = test system: Ipomea hederaceae (IPOHE); assay: as above; conditions: Ipomoea hederacea, 312 h
# Method in brief: as §1
# Setaria faberi (SETFA) [6] = assay: as above; conditions: 312 h
# Method in brief: as §1
# [7] = test system: Alopecurus myosuroides (ALOMY); assay: Post-emergence biological efficacy, glasshouse pot test; conditions: 312 h
# Method in brief: (§2)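 Plants were sown in standard soil and grown 8 days in a glasshouse (24/16° C. day/night, 14 hours light, 65% humidity), then sprayed post-emergence at 1000 or 250 g/ha from acetone/water (50:50) with 0.5% Tween 20. Damage was scored visually after 13 days (0 = none, 100 = total).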
# Solanum nigrum (SOLNI) [8] = assay: as above; conditions: 312 h
# Method in brief: as §2
# [9] = test system: Echinochloa crus-galli (ECHCG); assay: as above; conditions: 312 h
# Method in brief: as §2
# [10] = test system: Amaranthus retoflexus (AMARE); assay: as above; conditions: Amaranthus retroflexus, 312 h
# Method in brief: as §2
# [11] = test system: Ipomea hederaceae (IPOHE); assay: as above; conditions: Ipomoea hederacea, 312 h
# Method in brief: as §2
# Setaria faberi (SETFA) [12] = assay: as above; conditions: 312 h
# Method in brief: as §2
# [13] = pre-emergence, rate 1,000 g/ha, evaluated after 13 days (100=total damage to plant; 0=no damage), read-out: Percentage damage caused to weed species, ALOMY
# [14] = pre-emergence, rate 1,000 g/ha, evaluated after 13 days (100=total damage to plant; 0=no damage), read-out: Percentage damage caused to weed species, SOLNI
# [15] = pre-emergence, rate 1,000 g/ha, evaluated after 13 days (100=total damage to plant; 0=no damage), read-out: Percentage damage caused to weed species, ECHCG
# [16] = pre-emergence, rate 1,000 g/ha, evaluated after 13 days (100=total damage to plant; 0=no damage), read-out: Percentage damage caused to weed species, AMARE
# [17] = pre-emergence, rate 1,000 g/ha, evaluated after 13 days (100=total damage to plant; 0=no damage), read-out: Percentage damage caused to weed species, IPOHE
# [18] = pre-emergence, rate 1,000 g/ha, evaluated after 13 days (100=total damage to plant; 0=no damage), read-out: Percentage damage caused to weed species, SETFA
# [19] = Rate 1,000 g/ha, post-emergence spray, evaluated after 13 days (100=total damage to plant; 0=no damage to plant), read-out: Percentage damage caused to weed species, post-emergence, ALOMY
# [20] = Rate 1,000 g/ha, post-emergence spray, evaluated after 13 days (100=total damage to plant; 0=no damage to plant), read-out: Percentage damage caused to weed species, post-emergence, SOLNI
# [21] = Rate 1,000 g/ha, post-emergence spray, evaluated after 13 days (100=total damage to plant; 0=no damage to plant), read-out: Percentage damage caused to weed species, post-emergence, ECHCG
# [22] = Rate 1,000 g/ha, post-emergence spray, evaluated after 13 days (100=total damage to plant; 0=no damage to plant), read-out: Percentage damage caused to weed species, post-emergence, AMARE
# [23] = Rate 1,000 g/ha, post-emergence spray, evaluated after 13 days (100=total damage to plant; 0=no damage to plant), read-out: Percentage damage caused to weed species, post-emergence, IPOHE
# [24] = Rate 1,000 g/ha, post-emergence spray, evaluated after 13 days (100=total damage to plant; 0=no damage to plant), read-out: Percentage damage caused to weed species, post-emergence, SETFA
# [25] = pre-emergence, 1,000 g/ha, evaluated after 13 days (100=total damage; 0=no damage), read-out: Percentage damage ALOMY
# [26] = pre-emergence, 1,000 g/ha, evaluated after 13 days (100=total damage; 0=no damage), read-out: Percentage damage SOLNI
# [27] = pre-emergence, 1,000 g/ha, evaluated after 13 days (100=total damage; 0=no damage), read-out: Percentage damage ECHCG
# [28] = pre-emergence, 1,000 g/ha, evaluated after 13 days (100=total damage; 0=no damage), read-out: Percentage damage AMARE
# [29] = pre-emergence, 1,000 g/ha, evaluated after 13 days (100=total damage; 0=no damage), read-out: Percentage damage IPOHE
# [30] = pre-emergence, 1,000 g/ha, evaluated after 13 days (100=total damage; 0=no damage), read-out: Percentage damage SETFA
# [31] = post-emergence, 1,000 g/ha, evaluated after 13 days (100=total damage; 0=no damage), read-out: Percentage damage caused to weed species, ALOMY
# [32] = post-emergence, 1,000 g/ha, evaluated after 13 days (100=total damage; 0=no damage), read-out: Percentage damage caused to weed species, SOLNI
# [33] = post-emergence, 1,000 g/ha, evaluated after 13 days (100=total damage; 0=no damage), read-out: Percentage damage caused to weed species, ECHCG
# [34] = post-emergence, 1,000 g/ha, evaluated after 13 days (100=total damage; 0=no damage), read-out: Percentage damage caused to weed species, AMARE
# [35] = post-emergence, 1,000 g/ha, evaluated after 13 days (100=total damage; 0=no damage), read-out: Percentage damage caused to weed species, IPOHE
# [36] = post-emergence, 1,000 g/ha, evaluated after 13 days (100=total damage; 0=no damage), read-out: Percentage damage caused to weed species, SETFA
Compound,"pest or weed control at 1000 g/ha [1, 13]",pest or weed control at 1000 g/ha (Solanum nigrum (SOLNI) [2]; [14]),"pest or weed control at 1000 g/ha [3, 15]","pest or weed control at 1000 g/ha [4, 16]","pest or weed control at 1000 g/ha [5, 17]",pest or weed control at 1000 g/ha (Setaria faberi (SETFA) [6]; [18]),"pest or weed control at 1000 g/ha [7, 19]",pest or weed control at 1000 g/ha (Solanum nigrum (SOLNI) [8]; [20]),"pest or weed control at 1000 g/ha [1, 25]",pest or weed control at 1000 g/ha (Solanum nigrum (SOLNI) [2]; [26]),"pest or weed control at 1000 g/ha [3, 27]","pest or weed control at 1000 g/ha [4, 28]","pest or weed control at 1000 g/ha [5, 29]",pest or weed control at 1000 g/ha (Setaria faberi (SETFA) [6]; [30]),"pest or weed control at 1000 g/ha [7, 31]",pest or weed control at 1000 g/ha (Solanum nigrum (SOLNI) [8]; [32]),"pest or weed control at 1000 g/ha [9, 33]","pest or weed control at 1000 g/ha [10, 34]","pest or weed control at 1000 g/ha [11, 35]",pest or weed control at 1000 g/ha (Setaria faberi (SETFA) [12]; [36]),further results
"COc1c(Cl)ccc(-c2nc(NCC3CC3)c(Cl)c(C(=O)O)n2)c1F [Compound 109-43, 5-Chloro-2-(4-chloro-2-fluoro-3-methoxyphenyl)-4-cyclopropylmethyl-aminopyrimidine-6-carboxylic acid]",10%,90%,30%,100%,70%,60%,90%,100%,,,,,,,,,,,,,"pest or weed control at 1000 g/ha [9, 21]: 100%; pest or weed control at 1000 g/ha [10, 22]: 100%; pest or weed control at 1000 g/ha [11, 23]: 80%; pest or weed control at 1000 g/ha (Setaria faberi (SETFA) [12]; [24]): 90%"
"COC(=O)c1nc(C2CC2)nc(NC(c2ccc(Cl)cc2)C2CC2)c1Cl (stereo not drawn) [Compound 4-200, 5-Chloro-4-[1-(4-chlorophenyl)-1-(cyclopropyl)methyl-amino]-2-cyclopropyl-6-methoxycarbonyl-pyrimidine]",,,,,,,,,0%,0%,0%,20%,50%,0%,20%,80%,20%,100%,90%,40%,
"COC(=O)c1nc(C2CC2)nc(Nc2ccc(Cl)c(Cl)c2)c1Cl [Compound 4-42, 5-Chloro-2-cyclopropyl-4-(3,4-dichlorophenyl-amino)-6-methoxycarbonyl-pyrimidine]",,,,,,,,,10%,0%,20%,30%,0%,10%,10%,50%,10%,50%,60%,0%,
"COC(=O)c1nc(-c2ccc(Cl)c(OC)c2F)nc(NCc2ccc(C)o2)c1Cl [Compound 112-135, 5-Chloro-2-(4-chloro-2-fluoro-3-methoxyphenyl)-6-methoxycarbonyl-4-[(5-methylfuran-2-yl)methylamino)-pyrimidine]",70%,100%,90%,100%,100%,90%,70%,90%,,,,,,,,,,,,,"pest or weed control at 1000 g/ha [9, 21]: 90%; pest or weed control at 1000 g/ha [10, 22]: 100%; pest or weed control at 1000 g/ha [11, 23]: 80%; pest or weed control at 1000 g/ha (Setaria faberi (SETFA) [12]; [24]): 90%"
"COC(=O)c1nc(C2CC2)nc(NCc2cc(F)cc(F)c2)c1Cl [Compound 4-100, 5-Chloro-2-cyclopropyl-4-(3,5-difluorophenylmeth-ylamino)-6-methoxy-carbonylpyrimidine]",,,,,,,,,20%,60%,40%,70%,50%,20%,30%,100%,70%,100%,100%,100%,
"COC(=O)c1nc(C2CC2)nc(NCCCc2ccccc2)c1Cl [Compound 4-249, 5-Chloro-2-cyclopropyl-6-methoxycarbonyl-4-(3-phenylpropyl-amino)pyrimidine]",,,,,,,,,20%,80%,50%,60%,100%,50%,30%,100%,50%,100%,90%,70%,
